Measured values: ChEMBL document CHEMBL4613224, “Synthesis, in-vitro antiprotozoal activity and molecular docking study of isothiocyanate derivatives” (Bioorg Med Chem, 2020)
The source made the active and inactive calls. The rule behind the calls is not given here.

Legend:
Trypanosoma cruzi = assay: Antitrypanosomal activity against Trypanosoma cruzi Tulahuen C4 trypomastigotes infected in rat L6 cells assessed as parasite growth inhibition at 2 ug/ml measured after 96 hrs by inverted microscopy analysis relative to control; format: functional
[1] = system: Trypanosoma brucei rhodesiense; assay: Antitrypanosomal activity against bloodstream Trypanosoma brucei rhodesiense STIB900 assessed as parasite growth inhibition at 2 ug/ml measured after 70 hrs by Alamar blue assay relative to control; format: functional; details: for inhibition at 2 µg/mL: STIB900, 70 h
Leishmania donovani [2] = assay: Antileishmanial activity against Leishmania donovani MHOM-ET-67/L82 axenic amastigotes assessed as parasite growth inhibition at 2 to 10 ug/ml measured after 72 hrs by Alamar blue based inverted microscopy analysis relative to control; format: functional
[3] = system: Trypanosoma brucei rhodesiense; assay: Antitrypanosomal activity against bloodstream Trypanosoma brucei rhodesiense STIB900 assessed as parasite growth inhibition measured after 70 hrs by Alamar blue assay; format: functional, organism-based; details: STIB900, 70 h
[4] = (§1) Selectivity index, ratio of IC50 for rat L6 cells assessed as reduction in cell viability measured after 72 hrs by Alamar blue based inverted microscopy analysis to IC50 for bloodstream Trypanosoma brucei rhodesiense STIB900 assessed as parasite growth inhibition measured after 70 hrs by Alamar blue assay; format: toxicity; details: read-out: Ratio IC50
L6 = assay: Cytotoxicity against rat L6 cells assessed as reduction in cell viability measured after 72 hrs by Alamar blue based inverted microscopy analysis; details: L6, 72 h
Plasmodium falciparum = assay: Antiplasmodial activity against Plasmodium falciparum NF54 measured after 24 hrs in presence of [3H] hypoxanthine by liquid scintillation counter analysis; format: functional, organism-based
[5] = Selectivity index, ratio of IC50 for rat L6 cells assessed as reduction in cell viability measured after 72 hrs by Alamar blue based inverted microscopy analysis to IC50 for Plasmodium falciparum NF54 measured after 24 hrs in presence of [3H] hypoxanthine by liquid scintillation counter analysis; format: toxicity; details: read-out: Ratio IC50
[6] = as §1, with “Leishmania donovani MHOM-ET-67/L82 axenic amastigotes” for “bloodstream Trypanosoma brucei rhodesiense STIB900”, “72” for “70”, “based inverted microscopy analysis” for “assay”; format: toxicity; details: for selectivity ratio at 72 h: L6 cells, read-out: Ratio IC50
Leishmania donovani [7] = assay: Antileishmanial activity against Leishmania donovani MHOM-ET-67/L82 axenic amastigotes assessed as parasite growth inhibition measured after 72 hrs by Alamar blue based inverted microscopy analysis; format: functional, organism-based; details: MHOM-ET-67/L82, 72 h

SMILES | inhibition (Trypanosoma cruzi) | inhibition at 2 µg/mL [1] [%] | inhibition (Leishmania donovani [2]) | IC50 [3] [µM] | selectivity ratio at 72 h [4] | IC50 (L6; read-out: IC50) [µM] | IC50 (Plasmodium falciparum) [µM] | selectivity ratio at 72 h [5] | inhibition (INH) (Leishmania donovani [2]) [%] | selectivity ratio at 72 h [6] | IC50 (Leishmania donovani [7]) [µM] | inhibition [1] | IC50 (L6) [µM] | Ratio IC50 ([6]; 72 h)
CCc1ccccc1N=C=S | inactive | > 50 | inactive |  |  |  |  |  |  |  |  |  |  | 
COc1ccc2c(c1OC)CO[C@@H]2[C@H]1c2c(cc3c(c2OC)OCO3)CCN1[C@@H](CN)c1cccnc1 |  | > 50 |  | 3.9 | 3.7 | 14.4 |  |  |  |  |  |  |  | 
COc1ccc2c(c1OC)CO[C@@H]2[C@H]1c2c(cc3c(c2OC)OCO3)CCN1C(CN=C=S)c1ccccc1 (some centres not stated) | inactive | > 50 |  | 2.3 | 8.2 | 18.7 | 3.7 | 5.07 | >90 | 18.4 | 1 |  |  | 
C[C@@H](CCC(N)=O)[C@H]1CC[C@H]2[C@@H]3[C@H](O)C[C@@H]4C[C@H](O)CC[C@]4(C)[C@H]3C[C@H](O)[C@]12C |  |  |  |  |  |  |  |  |  |  |  | inactive |  | 
COc1ccc2c(c1OC)CO[C@@H]2[C@H]1c2c(cc3c(c2OC)OCO3)CCN1C(CN)c1ccc(C)cc1 (some centres not stated) |  | > 50 |  | 1 | 24.4 | 23.3 | 1.8 | 12.8 |  |  |  |  |  | 
COC(=O)[C@H](Cc1ccccc1)N=C=S | inactive | > 50 |  |  |  | 13.9 |  |  | >90 | 14.4 | 1 |  |  | 
Nc1nc(N)nc(Nc2ccc([As]3SCC(CO)S3)cc2)n1 (configuration not stated) [MELARSOPROL] |  |  |  |  | 3230 | 24.2 |  |  |  |  |  |  |  | 
C[C@@H](CCC(N)=O)[C@H]1CC[C@H]2[C@@H]3CC[C@@H]4C[C@H](O)CC[C@]4(C)[C@H]3CC[C@]12C |  |  |  |  |  |  |  |  |  |  |  | inactive |  | 
C[C@@H](CCC(N)=O)[C@H]1CC[C@H]2[C@@H]3CC[C@@H]4C[C@H](O)CC[C@]4(C)[C@H]3C[C@H](O)[C@]12C |  |  |  |  |  |  |  |  |  |  |  | inactive |  | 
COc1cc([C@@H]2c3cc4c(cc3[C@H](O)[C@H]3COC(=O)[C@H]23)OCO4)cc(OC)c1OC [PODOFILOX] |  |  |  |  |  |  |  |  |  |  |  |  | 0.012 | 
S=C=NCCc1c[nH]c2ccccc12 | inactive | > 50 |  | 4 | 1.8 | 7.1 | 10.3 | 0.7 | >90 | 4.2 | 1.7 |  |  | 
Cc1ccc(N=C=S)cc1 | inactive | > 50 | inactive | 37.1 | 8.8 | 325 |  |  |  |  |  |  |  | 
COc1ccc2c(c1OC)CO[C@@H]2[C@H]1c2c(cc3c(c2OC)OCO3)CCN1[C@@H](CN=C=S)c1ccc(F)cc1 | inactive | > 50 |  | 1.7 | 8 | 13.6 | 2.1 | 6.5 | >90 | 17.5 | 0.8 |  |  | 
COC(=O)[C@H](Cc1c[nH]c2ccccc12)N=C=S | inactive | > 50 |  | 22.5 | 3.5 | 78.1 | 10.2 | 7.7 | >90 | 10.9 | 7.1 |  |  | 14.4
Fc1ccc(N=C=S)cc1 | inactive | > 50 | inactive | 46.6 | 6.2 | 287 |  |  |  |  |  |  |  | 
COc1ccc(N=C=S)cc1OC | inactive | 50 | inactive |  |  |  |  |  |  |  |  |  |  | 
C[C@@H](CCCN=C=S)[C@H]1CC[C@H]2[C@@H]3[C@@H](O)C[C@@H]4C[C@H](O)CC[C@]4(C)[C@H]3CC[C@]12C | inactive | > 50 |  | 1.6 | 2.7 | 4.3 |  |  | >90 |  |  |  |  | 
CC(C)c1ccc2c(c1)CC[C@H]1[C@](C)(CN=C=S)CCC[C@]21C | inactive | > 50 |  | 5.7 | 1.8 | 10 | 1.1 | 9.4 | >90 | 2.4 | 4.2 |  |  | 
S=C=NCc1ccccc1 [BENZYL ISOTHIOCYANATE] | inactive | > 50 | inactive |  |  |  |  |  |  |  |  |  |  | 
COc1ccc2c(c1OC)CO[C@@H]2[C@H]1c2c(cc3c(c2OC)OCO3)CCN1C(CN=C=S)c1ccc(C)cc1 (some centres not stated) | inactive | > 50 |  | 3.1 | 0.5 | 1.5 | 1.1 | 1.4 | >90 | 1.7 | 0.8 |  |  | 
C[C@@H](CCCN=C=S)[C@H]1CC[C@H]2[C@@H]3[C@H](O)C[C@@H]4C[C@H](O)CC[C@]4(C)[C@H]3CC[C@]12C | inactive | > 50 |  | 4.5 | 1.2 | 5.4 | 4.9 | 1.1 | >90 | 3.6 | 1.5 |  |  | 
C[C@@H](CCCN=C=S)[C@H]1CC[C@H]2[C@@H]3[C@H](O)C[C@@H]4C[C@H](O)CC[C@]4(C)[C@H]3C[C@H](O)[C@]12C | inactive | > 50 |  | 1.3 | 2.9 | 3.9 | 5.2 | 0.7 | >90 | 7.8 | 0.5 |  |  | 
COc1ccc2c(c1OC)CO[C@@H]2[C@H]1c2c(cc3c(c2OC)OCO3)CCN1C(CN=C=S)c1ccc2c(c1)Cc1ccccc1-2 (some centres not stated) | inactive | > 50 |  | 6.5 | 0.6 | 3.9 | 2.6 | 1.5 | >90 | 3.1 | 1.3 |  |  | 
COc1ccc2c(c1OC)CO[C@@H]2[C@H]1c2c(cc3c(c2OC)OCO3)CCN1C(CN)c1ccccc1 (some centres not stated) |  | > 50 |  | 1.4 | 8.8 | 12.1 | 2 | 6 |  |  |  |  |  | 
COc1ccc2c(c1OC)CO[C@@H]2[C@H]1c2c(cc3c(c2OC)OCO3)CCN1C(CN)c1ccc2c(c1)Cc1ccccc1-2 (some centres not stated) |  | > 50 |  | 3.5 | 5.6 | 19.6 | 1.8 | 11.2 |  |  |  |  |  | 
